What all share (format): in vivo, male ICR mice
For assay [1], the system named is scratching action induced by the disruption of the cutaneous barrier function of mice. The assay can be described thus: Scratching action of mice with disrupted cutaneous barrier function (acetone/diethylether mixture and distilled water, twice daily for 5 days). To be noted: for number of the scratching action based on that of the control group: 120 minutes recording, control average = 100%, average ± standard error, 8 mice; for number of the scratching action bouts per 120 minutes: 10% aqueous solution, control group 126.5±20.8, significant. The source says:
(§1) A rostral part (4 cm^2, i.e. 2 cm×2 cm) of the back skin in each of 10 male ICR mice was shaved. Four days after the shaving, the following test was started: The skin was covered with a 2 cm×2 cm absorbent cotton impregnated with a mixture of acetone and diethylether (1:1) for 15 seconds. The skin was wiped to remove superfluous solvent, then covered with an absorbent cotton impregnated with distilled water for 30 seconds, and wiped in the same manner as that described above. This treatment for disrupting the cutaneous barrier function of the skin was conducted twice in daily at intervals of at least 8 hours for 5 days. In a control group, only the shaving was conducted.
On the next day after the completion of the 5 days treatment for disrupting the skin barrier function, each mouse was placed in each section of an acrylic acid resin cage (26×18×33 cm) divided into four sections (each section: 13×9×33 cm). After the mice was acclimatized to the cage in unmanned environment for 60 minutes, the action of each mouse was recorded for 120 minutes with a 8 mm video camera placed above the cage in such a manner that the 4 sections are in one scene. The scratching action was observed by playing back the video tape. The number of the scratching action by which the tip of a toe of a hind limb of the mouse touched the shaved part of the skin in 120 minutes was counted by the visual observation. One scratching action was a series of action beginning when the mouse raised its hind limb for starting the scratching and ending when the animal lowers its hind limb.
The effect of Terfenadine, which is a histamine H1 receptor antagonist, and that of Naloxone, which is an opioid antagonist, for relieving the itching were determined with the same test materials as those in Example 1. The barrier function-disrupting treatment was conducted in the same manner as that of Example 1. On the next day after the completion of the 5 days barrier function disrupting treatment, the scratching action of mice was recorded for 120 minutes in the same manner as that of Example 1. The observation of the behavior of the mice and the counting of the number of times of the scratching action were conducted in the same manner as that of Example 1. 10 mg/kg of Terfenadine which is the histamine H1 receptor antagonist, was perorally administered at 30 minutes before the starting to record the scratching action, or 1 mg/kg of Naloxone, which is an opioid receptor antagonist, was subcutaneously injected at 15 minutes before the starting to record the scratching action. […]
(§2) The effect of glycerol (humectant) on the skin manifestations and itching induced by the barrier disruption treatment of the present invention was determined by using the test animals similar to those used in Example 1. […] The skin manifestations were examined by the visual observation and the determination of hydration of the stratum corneum based on the relative electrostatic capacitance determined with Corneometer CM 825 (Courage+Khazaka Electronics, Cologne, Germany). Hydration of the stratum corneum was determined before starting the first barrier disrupting treatment every day and on the next day after the completion of the five days barrier disruption treatment. As for the scratching action, the scratching action of each mouse was filmed and recorded for 120 minutes in the same manner as that in Example 1 on next day after the completion of the five days barrier disruption treatment. […]

Assay [2] has as its system hydration of the stratum corneum. Nature of the assay: Hydration of the stratum corneum by relative electrostatic capacitance (Corneometer CM 825) in barrier-disrupted mice.
Source text: as §1
as §2, with “treatment.” for “treatment. As for the scratching action, the scratching action of each mouse was filmed and recorded for 120 minutes in the same manner as that in Example 1 on next day after the completion of the five days barrier disruption treatment.”

The test system of assay [3] is formation of scales and wrinkles induced by the cutaneous barrier disruption. The assay can be described thus: Visual observation of skin manifestations (scales and wrinkles) in barrier-disrupted mice.
Source text: as §1
as §2, with “treatment.” for “treatment. As for the scratching action, the scratching action of each mouse was filmed and recorded for 120 minutes in the same manner as that in Example 1 on next day after the completion of the five days barrier disruption treatment.”

Where [4] appears, read: 10 mg/kg perorally 30 minutes before recording.

As to `CC(C)(C)c1ccc(C(O)CCCN2CCC(C(O)(c3ccccc3)c3ccccc3)CC2)cc1` (stereo not drawn) [Terfenadine], in assay [1] (setting [4]), the “suppressing effect on the scratching action” value was “no suppressing effect was recognized” and the “number of the scratching action based on that of the control group” value is reported as 124.2±49.3%.

Consider `C=CCN1CC[C@]23c4c5ccc(O)c4O[C@H]2C(=O)CC[C@@]3(O)[C@H]1C5` [Naloxone], for which the “number of the scratching action based on that of the control group” value in assay [1] (1 mg/kg subcutaneously 15 minutes before recording, significant vs control (5%)) worked out at 42.5±13.1%.

Consider `OCC(O)CO` [glycerol], for which the “number of the scratching action bouts per 120 minutes” value in assay [1] (50 μl applied for 5 days, one hour after each barrier disruption treatment) worked out at 42.5±10.0 per 120 minutes; in assay [1] (50 μl applied for one day (twice on the fifth day)), 76.5±14.6 per 120 minutes. Moreover, the “hydration of the stratum corneum (relative electrostatic capacitance)” value in assay [2] (10% aqueous solution applied for 5 days, next day after the 5 days barrier disrupting treatment, 40.0±1.2 before start, control 15.5±2.1) was 44.7±3.0; in assay [2] (10% aqueous solution applied for one day, recovered from 20.5±1.3 after 4 days of treatment, 43.5±1.3 before start), 41.3±2.6. In addition, the “formation of scales and wrinkles induced by the cutaneous barrier disruption” value in assay [3] (10% aqueous solution applied for 5 days) is on record as “completely inhibited”. Also, the “scales and wrinkle formation” value in assay [3] (10% aqueous solution applied for one day) is “slight scales and wrinkle formation was observed”.

The values above are taken from US20010042520A1, “Method for producing model animals for itching induced by disruption of cutaneous barrier function” (priority 2000, published 2001).
